Tested on: BALB/c mice
Experiment: hypocalcemic test in vivo in BALB/c mice
Details: for biological activity as percentage activity of the hypocalcemic effect maximally achievable in this test: 100% = effect achieved by 2 μg of hCt, BALB/c mice
Protocol: The biological activity of the analogs was determined by means of a hypocalcemic test in vivo in BALB/c mice.
The biological activity is shown as a percentage [%] activity of the hypocalcemic effect maximally achievable in this test, as is achieved by 2 μg of hCt.

[1] = concentration of the peptides 0.01 ng/ml
[2] = concentration of the peptides 0.1 ng/ml
[3] = concentration of the peptides 1 ng/ml
[4] = concentration of the peptides 10 ng/ml
[5] = relative to hCt, mouse in-vivo test

Substance | biological activity as percentage activity of the hypocalcemic effect maximally achievable in this test [1] | biological activity as percentage activity of the hypocalcemic effect maximally achievable in this test [2] | biological activity as percentage activity of the hypocalcemic effect maximally achievable in this test [3] | biological activity as percentage activity of the hypocalcemic effect maximally achievable in this test [4] | activity above the activity of the human calcitonin [5] | times more active than the original human calcitonin [5] | times more active than calcitonin from salmon (sCt) (relative to sCt, mouse in-vivo test)
calcitonin from salmon [sCt, reference compound] | 21.1% | 51.6% | 63.2% | – | – | – | –
cyclo^17,21-[Asp^17,Orn^21]-hCt [Cyclo^17,21-[Asp^17, Om^21]-hCt] | 36.8% | 68.4% | 76.3% | 86.8% | 363 fold | 360 times | three
human calcitonin [hCt, reference compound] | – | 5.8% | 15.8% | 35.2% | – | – | –

Reference: patent publication US6617423B1, “Superpotent calcitonin analogs having greatly increased hypocalcemic action in vivo” (Fraunhofer-Gesellschaft zur Forderung der Angewandten …, priority 1997, dated 2003)
